# Patent publication US9067960B2, “Hybrid SCFA-hydroxyl-derivatized monosaccharides, methods of synthesis, and methods of treating disorders” (The Johns Hopkins University, priority 2007, dated 2015)
# “Also recorded” adds a separate entry of the source.
# How the values were obtained:
# Toxicity of MOE analogs = assay type: cell-based
# stem cells = assay: Control of stem cell fate; assay type: cell-based, human
# Description: The combination of the biological activities SCFA- and sugar activities of compounds (such as Bu4ManNAc or l(OH)But3ManNAc is useful for cancer treatment because each of the biological activities of the hybrid molecule have been designed to work in concert against a particular characteristic of cancer. An equally valuable aspect of the current invention, however, is ability to separate the various biological activities of the hybrid molecules—for example it is now possible to maintain flux through a glycosylation pathway and to simultaneously avoid or minimize SCFA effects such as toxicity or changes to gene expression that affect the cellular phenotype under investigation (see FIG. 10). This ability opens the door to the many scenarios where an SCFA is attached to a core sugar towards the sole purpose of increasing the metabolic efficiency of the sugar without triggering biological activities of the SCFA moiety. In this case, non-natural monosaccharide analogs would transit the glycosylation pathways without eliciting unrelated changes to proliferation, apoptosis, or gene expression that would either confound interpretation of the experiment under way or actually lead to deleterious cellular outcomes. […]
# sialic acid biosynthesis = assay: Total sialic acid production (periodate-resorcinol assay); assay type: cell-based
# Procedure: Jurkat cells (5.0×10^6 cells in 10 mL medium) are incubated a compound of the invention at various concentrations. After three days, the cells (1.0×10^6 cells per sample) are lysed by freeze-thaw cycles (three times). The cell lysates are analyzed by using an adapted version of the periodate-resorcinol assay with the periodic acid oxidation step performed on ice to allow quantification of total (i.e., free monosaccharide plus glycoconjugate-bound) sialic acid. For each assay, a standard curve is obtained using N-acetylneuraminic acid (Pfanstiehl, Waukegan, Ill.) for calibration.
# histone deacetylase = assay: HDAC inhibitor (SCFA) activity of sugar-delivered butyrate; assay type: cell-based
# Description: In this section, we present evidence for the first aspect of our model to describe the bioactivity of the compounds of the invention against cancer cells—namely that sugar-delivered butyrate acts as an HDACi—by a set of three complementary assays. […] Together, these assays provide convincing proof that sugar-delivery n-butyrate retains its characteristic SCFA bioactivity.
# human cancer cells = assay: Killing of cancer cells by SCFA-hexosamine hybrid molecules (apoptosis, growth); assay type: cell-based
# Description: ManNAc has several attractive features that led us to select it as an hexosamine for use in butyrate-sugar hybrid drug development. First, it is a committed precursor for the sialic acid biosynthetic pathway and has no other known metabolic roles, thereby allowing a specific and unique biochemical pathway to be targeted. Second, uptake of exogenous ManNAc alters flux through the sialic acid biosynthetic pathway and changes sialyltransferase and sialidase activity thereby altering the display of sialic acid on cell surface glycoproteins and glycolipids. Because these sialoglycans modulate apoptosis, it was hypothesized that an n-butyrate prodrug with ManNAc as an active carrier would both “arrest” and “execute” cancer cells via SCFA-mediated cell cycle inhibition and ManNAc-augmented apoptosis, respectively. […]
# Jurkat cells (5.0×10^5 per mL) are incubated with PBS and a compound of the invention at […]. After 48 h, the cells are counted, harvested, washed once in fresh medium and plated in a 24-well plate containing various concentrations of sodium butyrate (0-2.0 mM; a stock solution of 200 mM in PBS was used for dilutions and control samples). Cell cultures are maintained and growth is monitored for 15 days as described above under the toxicity and growth inhibition assays. […]
# Jurkat cells [1] = assay: Surface expression of Sia5Lev: ketone-bearing sialosides by biotin hydrazide, FITC-avidin, flow cytometry; assay type: cell-based, human
# Jurkat cells [2] = assay: Toxicity and growth inhibition assays (cell counts, days 3-15); assay type: cell-based, human
# Procedure: Solutions of the analogs in EtOH (10 mM stock) are coated onto 24-well plates at a range of concentrations from 0-320 μM and ethanol is allowed to evaporate. Jurkat cells (1.0×10^5 cells) in 0.5 mL of medium are plated in each well (day 0). On days 3 and 5, fresh medium (1.0 mL) is added to each well. Cell cultures are mixed by gentle pipetting and 100 μL of cell suspension are taken from each well and counted. On days 7, 9, 11, 13 and 15, 1.0 mL of cell suspension is removed from each well after thorough mixing and fresh medium (1.0 mL) is added. Cells are counted on day 15 and the cell density is plotted as a percentage of control.
# In initial assays, Jurkat (human T-lymphoma) cells are incubated with compounds of the invention and growth rates were monitored. The compounds reduce cell proliferation at early time points (days 3 & 5) in a dose dependent manner.
# transformed cells = conditions: cited from earlier work
smiles,measurement,setting,value
"CCCC(=O)OC1O[C@H](CO)[C@@H](OC(=O)CCC)[C@H](OC(=O)CCC)[C@@H]1NC(C)=O (some centres unmarked) [6(OH)But3ManNAc, 1,3,4-O-Bu3ManNAc]",toxicity,Toxicity of MOE analogs,avoiding toxicity
CC(=O)OCC(=O)N[C@@H]1C(OC(C)=O)O[C@H](COC(C)=O)[C@@H](OC(C)=O)[C@@H]1OC(C)=O (some centres unmarked) [Ac5ManNGc],toxicity,Toxicity of MOE analogs,considerable toxicity
CC(=O)OCC1OC(OC(C)=O)C(NC(=O)CSC(C)=O)C(OC(C)=O)C1OC(C)=O (centres unmarked) [Ac5ManNTGc],fate of stem cells,stem cells,can control the fate of stem cells
same,toxicity,Toxicity of MOE analogs,considerable toxicity
CCCC(=O)OCC1OC(OC(=O)CCC)C(NC(C)=O)[C@@H](OC(=O)CCC)[C@@H]1OC(=O)CCC (some centres unmarked) [Bu4ManNAc],sialic acid biosynthesis,sialic acid biosynthesis,activates sialic acid biosynthesis; also recorded: primes sialic acid biosynthesis
same,function as histone deacetylase inhibitor (HDACi),histone deacetylase,functioning as an HDACi
same,cell killing,human cancer cells,ultimately killed the cells
same,induction of apoptosis,human cancer cells,gains a unique ability to induce apoptosis; also recorded: efficiently induced apoptosis
"CCCC(=O)OC1O[C@H](CO)[C@@H](OC(=O)CCC)[C@H](OC(=O)CCC)[C@@H]1NC(=O)CCC(C)=O (stereo partly drawn) [compound 13, 1,3,4-tri-O-butanoyl-2-deoxy-2-(4-oxopentanoyl)amino-α,β-D-mannopyranose]",Surface detection of ketone-bearing sialosides (cell surface ketone labeling),Jurkat cells [1],even more efficient at providing cell surface ketone labeling
same,Growth inhibition after 3 days,Jurkat cells [2],significantly less inhibitory
"CCCC(=O)O.COc1cccc(C#CCON=C2CN3CCC2C3)c1 (centres unmarked) [n-Butyrate, n-butyrate]",levels needed for bioactivity,transformed cells,up to 50 mM
